In ChEMBL document CHEMBL1144274, “Novel spiroanellated 1,2,4-trioxanes with high in vitro antimalarial activities” (Bioorg Med Chem Lett, 2005):
pIC50: −log10 of the molar value. In brackets after ≈: the same amount, converted by molar mass.

Tests used:
[1] = tested on: Plasmodium falciparum; experiment: In vitro inhibition of Plasmodium falciparum K1 (0.0008 ug/mL); format: functional, organism-based
[2] = tested on: Plasmodium falciparum; experiment: In vitro inhibition of Plasmodium falciparum K1 (0.00054 ug/mL); format: functional, organism-based
[3] = In vitro cytotoxicity against mammalian L-6 cell line; format: functional, cell-based; settings: L6
[4] = tested on: Plasmodium falciparum; experiment: In vitro inhibition of Plasmodium falciparum K1 (0.0013 ug/mL); format: functional, organism-based
[5] = tested on: Plasmodium falciparum; experiment: In vitro inhibition of Plasmodium falciparum K1 (0.0024 ug/mL); format: functional, organism-based
[6] = tested on: Plasmodium falciparum; experiment: In vitro inhibition of Plasmodium falciparum K1 (0.0088 ug/mL); format: functional, organism-based
[7] = tested on: Plasmodium falciparum; experiment: In vitro inhibition of Plasmodium falciparum K1 (0.2253 ug/mL); format: functional, organism-based
[8] = tested on: Plasmodium falciparum; experiment: In vitro inhibition of Plasmodium falciparum K1 (0.00065 ug/mL); format: functional, organism-based

Q: With `C[C@@H]1CC[C@H]2[C@@H](C)C(=O)O[C@@H]3O[C@@]4(C)CC[C@@H]1[C@]32OO4` [ARTEMISININ] as the molecule, how does the pIC50 [1] read?
A: 8.55

Q: With `C=C(C)C1OO[C@]2(O[C@H]1C1CC1)[C@H]1CC3C[C@@H](C1)C[C@H]2C3` (stereo partly drawn) as the molecule, how does the pIC50 [2] read?
A: 8.72

Q: And the IC50 [3]?
A: 0.74 µg/mL (≈ 2.55 µM)

Q: With `C=C(C)C1OO[C@]2(O[C@H]1C)[C@H]1CC3C[C@@H](C1)C[C@H]2C3` (stereo partly drawn) as the molecule, how does the pIC50 [4] read?
A: 8.31

Q: And the IC50 [3]?
A: 1.7 µg/mL (≈ 6.43 µM)

Q: Which results are given for `C=C(C)[C@@H]1OOC2(CCCC2)O[C@H]1C(C)C`?
A: IC50 [3]: 0.82 µg/mL (≈ 3.62 µM); pIC50 [5]: 7.97

Q: Which IC50 [3] does the source give for `O[C@H](c1cc(C(F)(F)F)nc2c(C(F)(F)F)cccc12)[C@@H]1CCCCN1` [MEFLOQUINE] here?
A: 1.9 µg/mL (≈ 5.02 µM)

Q: With `C=C(C)[C@@H]1OOC2(CCCC2)O[C@H]1C(C)(C)C` as the molecule, how does the pIC50 [6] read?
A: 7.44

Q: And the IC50 [3]?
A: 3.7 µg/mL (≈ 15.4 µM)

Q: With `C=C(C)[C@@H]1OOC(C)(C)O[C@H]1C` as the molecule, how does the pIC50 [7] read?
A: 5.88

Q: For `C=C(C)[C@@H]1OOC2(CCCCC2)O[C@H]1C`, which IC50 [3] is on record?
A: 0.46 µg/mL (≈ 2.17 µM)

Q: What about the pIC50 [8] of the same molecule?
A: 8.51
